# Marks after values point to notes of the source that are not given here. Residues, ends and D or L forms follow the SMILES beside them. *: point of attachment. Palmitoyl = CCCCCCCCCCCCCCCC(=O)*
# Assays:
# [1] = tested on: hyaluronic acid secretion in NHK; assay: Hyaluronic acid secretion by keratinocytes (ELISA); format: cell-based, human; conditions: for Hyaluronic acid % of variatio/control: ELISA
# Experimental: The moisturizing aspect was evaluated by the assay of hyaluronic acid produced by keratinocytes by an ELISA method.
# (§1) A quantification of the number of cells was carried out in parallel for the 4 tests described in this part, so as to reduce the results to the number of cells.
# NHKs exposed to UVB = assay: Secretome of pro-inflammatory mediators by NHKs exposed to UVB (ELISA); format: cell-based, human; conditions: NHK + UVB
# Experimental: To test the active, keratinocytes were cultured under mild stress conditions (application of UVB radiation) so as to mimic experimental micro-inflammation of the skin. In this situation a significant decrease in their secretome of inflammation mediators will be interpreted in the sense of a repairing and protective action of the skin.
# NHKs in culture and at confluence were brought into contact with the peptide according to the invention (or its solvent) for 24 hours in a medium allowing their survival, then the mats were irradiated with UVB in a physiological buffer and placed back into contact with products to be tested for 24 hours. At the end of this incubation, the culture media were assayed by ELISA in order to know the quantities of pro-inflammatory mediators produced by these cells in response to irradiation. The results were compared with solvent control +/−irradiation. A cellular respiration test was conducted to evaluate the number of cells and standardize the results.
# (§2) A study of the variances and a Student's t test were carried out in order to judge the significance of the results.
# [2] = tested on: normal human keratinocytes (NHK); assay: DNA-Array, mRNA expression in confluent keratinocytes; format: cell-based; conditions: 4 ppm
# Experimental: The following in vitro tests were performed on epidermal cells: normal human keratinocytes (NHK) or on skin explant or on reconstructed skin. The peptide according to the invention was tested, in solution in an inert solvent (ethanol), at recommended concentrations of use on the skin. The peptide according to the invention was contacted for 6 or 24 h with confluent KHN (n=3). Then the KHN mats were rinsed and the cells were crushed to extract their mRNAs. These mRNAs are then converted into small DNA sequences which are analyzed after deposition on DNA chips and amplification by a method similar to qRT-PCR (Real-Time Quantitative Reverse Transcription Polymerase Chain Reaction). The mRNA variations due to the peptide are compared to the control case (peptide solvent).
# KLK5 (kallikrein 5) = assay: KLK5 fluorescence immunohistology on abdominal skin explant; format: cell-based, human; conditions: cream containing 6 ppm applied daily, 6 days, vs placebo cream
# Text: (§3) Desmoglein was searched on sections of abdominal skin (person) who had received a cream containing 6 ppm of the peptide according to the invention or the placebo cream. After 6 days (cream applied daily), the skins were frozen and sectioned to look for desmoglein using antibodies against this protein (fluorescence immunohistology). Photos were captured using a fluorescence microscope and the images analyzed using suitable software. The results were compared to those of the placebo cream.
# The same sections as those used for desmoglein, as well as the same method (fluorescence immunohistology) were used to analyze and quantify the effect of the peptide according to the invention on this desquamation marker.
# desmoglein = assay: Desmoglein fluorescence immunohistology on abdominal skin explant; format: cell-based, human; conditions: cream containing 6 ppm applied daily, 6 days, vs placebo cream
# Text: as §3
# [3] = tested on: α-crystallin protein in reconstructed skin epidermis; assay: α-crystallin immunohistology on reconstructed skins; format: cell-based, human; conditions: for α-cristallin % of variation/control: reconstructed skin epidermis, 24 hours then following 18 days
# Experimental: Normal human fibroblasts were seeded in a matrix. A few days after keratinocytes were deposited on this equivalent dermis to form a uniform layer of cells. At this stage the whole was passed to an air-liquid interface (emersion) so as to form a pluristratified epidermis. After 21 days (approximately), a mature skin equivalent was obtained (with an epidermis comprising the stratum corneum).
# On the eve of the emergence phase, the layer of confluent human keratinocytes of these skins received the peptide according to the invention for 24 hours and then for the following 18 days (period of formation of the epidermis). Cryo-sections (7 μm) were made and the α-crystallin was labeled with fluorescent antibodies (immunohistology). The fluorescence was analyzed in photos, an equivalent surface was analyzed for all the photographs (n=51-59). Student's t test was performed.
# confluent keratinocytes = assay: Intracellular calcium mobilization in confluent keratinocytes (fluorescent calcium probe); format: cell-based, human; conditions: 6 or 15 ppm; visible after about 30 minutes of contact
# Experimental: Confluent keratinocytes were loaded with a specific calcium probe. This molecule becomes very fluorescent in the presence of intracellular free calcium. The appearance of fluorescence under the microscope was monitored. The cells, once loaded, were rinsed and then received the peptide according to the invention at 6 or 15 ppm or a positive control (bradykinin).
# A study of the variances and a t test of Student were carried out in order to judge the significance of the results (n=3 for each condition).
# transglutaminases = assay: Transglutaminase activity (fluorescent dansylcadaverine) in NHK; format: cell-based, human; conditions: contact up to 21 days
# Experimental: (§4) Finally, the influence of the peptide according to the invention on the activity of transglutaminases and on the expression of the transglutaminase-5 gene was evaluated.
# For this, confluent NHKs were brought into contact with the peptide according to the invention up to 21 days. Transglutaminase activity was assessed using a protocol using fluorescent dansylcadaverine which is bound to Stratum corneum proteins by these enzymes. An analysis of the fluorescence was performed, and the results compared to the solvent control.
# as §1
# transglutaminase-5 gene = assay: Transglutaminase-5 gene expression (qRT-PCR) in KHN; format: cell-based, human; conditions: 72 hours of contact
# Experimental: as §4
# With regard to transglutaminase-5, a qRT-PCR was performed after 72 hours of contact between the KHN and the peptide according to the invention.
# as §1
# [4] = tested on: normal human keratinocytes (NHK); assay: Immunocytochemistry of differentiation markers and ceramides in NHK; format: cell-based; conditions: 2 ppm, 7 days
# Experimental: Confluent NHKs (n=3) were cultured as previously for 7 days in the presence or absence (control) of the peptide according to the invention, then immunocytochemistry markings were carried out using antibodies directed against proteins characteristic of the maturation of the epidermis: involucrin, loricrin and filaggrin, or of moisturizing: filaggrin, as well as ceramides (structuring elements of the Stratum corneum).
# as §1
# Lnc-RNA ANCR = Lnc-RNA ANCR expression (qRT-PCR) in confluent keratinocytes; format: cell-based, human; conditions: 24 h
# Experimental: In this test confluent keratinocytes were contacted with the peptide according to the invention for 24 hours, then the cells were rinsed, ground and their RNAs were extracted, converted into DNA and then analyzed by qRT-PCR.
# A study of the variances and a Student's t-test were carried out in order to judge the significance of the results (n=4 for each condition).
# [5] = tested on: normal human keratinocytes (NHK); assay: LC-MS/MS study of proteins in NHK culture (7 days); format: cell-based; conditions: 4 ppm
# Text: The same culture protocol as for the DNA-Array (1.1/above) was used but with a longer culture time (7 days), the protein productions taking longer to be detected with this LC-MS/MS method. The NHK culture medium (n=3) was changed every 3 days. At the end of this contact, the cells were lysed so as to extract the proteins and to analyze them in the form of crushed material by a method associating the action of a protease on the crushed material, the separation of the fragments by coupled liquid chromatography to mass spectrometry, then the identification and concentration of pre-existing proteins according to the nature and quantity of fragments obtained (LC-MS/MS). To conduct LC-MS/MS analysis on equivalent amounts of protein, the protein concentration was measured on the crushed material.
# as §2
# filaggrin gene = assay: qRT-PCR analysis of filaggrin gene expression; format: cell-based, human
# Text: The genes of loricrin, filaggrin and filaggrin 2, three proteins involved in the building of the corneocyte or the moisturisation of the Stratum corneum, were statistically better expressed than in the solvent control (p<0.01). […] 3.66 times compared to control (p<0.01).
structure (smiles),measurement,setting,value
"CCCCCCCCCCCCCCCC(=O)NC(CCCCN)C(=O)NC(C(=O)NC(Cc1ccccc1)C(=O)NC(CCCCN)C(=O)O)C(C)O (stereo not shown) [peptide according to the invention, palmitoyl-lysyl-threonyl-phenylalanyl-lysine] (Palmitoyl-KTFK-OH; configuration not given here)",Toxic effects,[1]; 4 and 6 ppm,No toxic effects were noted.
same,Hyaluronic acid % of variatio/control,[1]; 4 ppm,+40%; p < 0.01
same,Hyaluronic acid % of variatio/control,[1]; 6 ppm,+91%; p < 0.01
same,IL-1α % of variation/control,NHKs exposed to UVB; 2 ppm,−15%
same,IL-1β % of variation/control,NHKs exposed to UVB; 2 ppm,−14%
same,IL-6 % of variation/control,NHKs exposed to UVB; 2 ppm,−12%
same,PGE2 % of variation/control,NHKs exposed to UVB; 2 ppm,−31%
same,TNF-α % of variation/control,NHKs exposed to UVB; 2 ppm,−10%
same,IL-1α % of variation/control,NHKs exposed to UVB; 4 ppm,−38%
same,IL-1β % of variation/control,NHKs exposed to UVB; 4 ppm,−43%
same,IL-6 % of variation/control,NHKs exposed to UVB; 4 ppm,−70%
same,PGE2 % of variation/control,NHKs exposed to UVB; 4 ppm,−59%
same,TNF-α % of variation/control,NHKs exposed to UVB; 4 ppm,−56%
same,IL-1α % of variation/control,NHKs exposed to UVB; 6 ppm,−46%
same,IL-1β % of variation/control,NHKs exposed to UVB; 6 ppm,−54%
same,IL-6 % of variation/control,NHKs exposed to UVB; 6 ppm,−84%
same,PGE2 % of variation/control,NHKs exposed to UVB; 6 ppm,−74%
same,TNF-α % of variation/control,NHKs exposed to UVB; 6 ppm,−71%
same,Toxic effects,[2]; 6 or 24 h contact,No toxic effects were noted.
same,Increase in production of mRNA coding for TRPC6 compared with the solvent control,[2]; 6 h,6.05 ×
same,Variation with respect to the control of expression of gene coding for Filaggrin,[2]; 6 hours contact,×2.32 *
same,Variation with respect to the control of expression of gene coding for Filaggrin 2,[2]; 6 hours contact,×2.42 *
same,Variation with respect to the control of expression of gene coding for Loricrin,[2]; 6 hours contact,×2.97 *
same,Variation with respect to the control of expression of gene coding for LCE2D,[2]; 24 hours contact,×1.84 **
same,Variation with respect to the control of expression of gene coding for LCE3B,[2]; 24 hours contact,×2.13 **
same,Variation with respect to the control of expression of gene coding for LCE3C,[2]; 24 hours contact,×3.25 **
same,Variation with respect to the control of expression of gene coding for LCE3D,[2]; 24 hours contact,×2.06 **
same,Variation with respect to the control of expression of gene coding for LCE3E,[2]; 24 hours contact,×2.33 **
same,Variation with respect to the control of expression of gene coding for SPRR2B,[2]; 24 hours contact,×2.13 **
same,Variation with respect to the control of expression of gene coding for SPRR2C,[2]; 24 hours contact,×1.58 **
same,KLK5 % of variation/control,KLK5 (kallikrein 5),+258%; p < 0.01
same,Desmogleine % of variation/control,desmoglein,+24%; p < 0.01
same,Toxic effects,"[3]; 4 and 6 ppm, reconstructed skin",No toxic effects were noted.
same,α-cristallin % of variation/control,[3]; 4 ppm,+61%; p < 0.01
same,α-cristallin % of variation/control,[3]; 6 ppm,+164%; p < 0.01
same,"Intracellular calcium mobilization (visual, fluorescence microscope)",confluent keratinocytes,induces an intracellular calcium mobilization
same,Transglutaminase Intra-KHN activity % of variation/control,transglutaminases; 4 ppm,+45%; p < 0.01
same,Transglutaminase Intra-KHN activity % of variation/control,transglutaminases; 6 ppm,+107%; p < 0.01
same,Transglutaminase-5 Gene expression % of variation/control,transglutaminase-5 gene; 4 ppm,+133%; p < 0.01
same,Transglutaminase-5 Gene expression % of variation/control,transglutaminase-5 gene; 6 ppm,+798%; p < 0.01
same,Toxic effects,[4],No toxic effects were noted.
same,Ceramides % of variation/control,[4]; immunofluorescence,+334%;
same,Filaggrin % of variation/control,[4]; immunofluorescence,+554%;
same,Involucrin % of variation/control,[4]; immunofluorescence,+60%;
same,Loricrin % of variation/control,[4]; immunofluorescence,+261%;
same,ANCR ratio % of variation/control,Lnc-RNA ANCR; 4 ppm,−27%; p < 0.05
same,ANCR ratio % of variation/control,Lnc-RNA ANCR; 6 ppm,−34%; p < 0.01
same,Toxic effects,[5],No toxic effects were noted.
same,Variation with respect to the control of protein Filaggrin,[5]; LC-MS/MS,×4.16
same,Variation with respect to the control of protein Keratin 10,[5]; LC-MS/MS,×1.46
same,Variation with respect to the control of protein NICE-1,[5]; LC-MS/MS,×3.42
same,Variation with respect to the control of protein SPRR1A,[5]; LC-MS/MS,×1.55
same,Variation with respect to the control of protein α-cristallin,[5]; LC-MS/MS,×2.19
same,Increase of filaggrin gene expression compared to control (qRT-PCR),filaggrin gene; 4 ppm,2.87 times
same,Increase of filaggrin gene expression compared to control (qRT-PCR),filaggrin gene; 6 ppm,3.66 times

# Source: patent US11523980B2, “Use of a peptide for the treatment of epiderm” (Sederma, priority 2018, dated 2022)
